Measurements as given in patent publication US12428427B2, “Methods and compositions for targeting PD-L1” (Aligos Therapeutics, Inc., priority 2021, dated 2025).

Tests used:
PDL1/PD1 = PDL1/PD1 (Homo sapiens, UniProt Q9NZQ7); test: PDL1/PD1 Binding Assay; details: PDL1-6×His 0.3 nM, PD1-Fc-Avi-Biotin 2.5 nM, Acceptor/Donor beads; read-out: PD-1/PD-L1 PPI IC50
Experimental: Compounds to be tested were serially diluted in DMSO, and further diluted in assay buffer (25 mM Hepes pH 7.4, 150 mM NaCl, 0.005% Tween 20, BSA 0.01%). Diluted compounds were added to the wells with final concentration of DMSO at 1%. PDL1-6×His protein was added to the wells, mixed well with compound. The plates were incubated for 30 min at room temperature. PD1-Fc-Avi-Biotin protein was added to the wells. Final concentration of PDL1 and PD1 protein is 0.3 nM and 2.5 nM, respectively. After a binding time of 30 min at room temperature, Anti-6×His Acceptor beads (final concentration 20 ug/ml) were added to the wells, and the incubation continued for 1 h. Streptavidin Donor beads (final concentration 20 ug/mL) were added at reduced light. The plates were sealed with foil and incubated in the dark for additional 1 h or overnight before reading on an Envision reader. The IC50 values were determined by fitting the curves using a four-parameter equation in Graphpad Prism 8.

PD-1/PD-L1 interaction = target: T1, PD-1/PD-L1 interaction (Homo sapiens, UniProt Q9NZQ7); test: PD-1/PD-L1 NFAT Reporter Assay; assay type: cell-based; details: co-culture of PD-L1 expressing CHO cells and PD-1 overexpressing Jurkat cells, 6 hrs, NFAT luciferase
T1 construct: expressed in transfected cells; Jurkat cells (PD-1 plus NFAT-luciferase)
T1 sequence (Q9NZQ7 19-290): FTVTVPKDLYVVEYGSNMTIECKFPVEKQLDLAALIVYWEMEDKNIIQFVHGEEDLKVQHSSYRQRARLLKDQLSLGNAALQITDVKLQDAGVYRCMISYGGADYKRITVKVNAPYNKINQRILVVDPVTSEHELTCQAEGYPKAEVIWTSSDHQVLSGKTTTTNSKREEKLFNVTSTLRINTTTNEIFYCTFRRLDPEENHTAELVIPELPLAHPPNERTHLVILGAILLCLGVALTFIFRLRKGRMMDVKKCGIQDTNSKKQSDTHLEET
Experimental: Blocking the PD-1/PD-L1 interaction will release the inhibitory signal and results in TCR signaling and NFAT-mediated luciferase activity.
CHO cells expressing surface-bound anti-CD3 antibodies and PD-L1 were first seeded overnight and treated with the compounds. Jurkat cells overexpressing PD-1 and a luciferase construct under NFAT promoter were then immediately seeded on the monolayer of CHO cells. The co-culture was then incubated for 6 hrs at 37° C. Luciferase activity was assessed by adding the ONE-Glo reagent and measuring luminescence with a plate reader. EC50 values were determined from the fit of the dose-response curves.

Sequence of PDL1/PD1 (Q9NZQ7 19-238 limits assumed): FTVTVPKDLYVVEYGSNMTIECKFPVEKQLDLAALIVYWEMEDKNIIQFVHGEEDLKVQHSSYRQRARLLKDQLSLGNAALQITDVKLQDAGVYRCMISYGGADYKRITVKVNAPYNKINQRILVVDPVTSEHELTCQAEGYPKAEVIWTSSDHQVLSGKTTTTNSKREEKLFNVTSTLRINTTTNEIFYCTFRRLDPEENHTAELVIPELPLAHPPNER

| SMILES | IC50 (PDL1/PD1) [nM] | EC50 (PD-1/PD-L1 interaction) [nM] |
| --- | --- | --- |
| COc1nc(-c2cccc(-c3cccc(NC(=O)c4ccnn(C)c4=O)c3C)c2Cl)ccc1CNC1CCN(C(C)=O)C[C@@H]1O (stereo in doubt) [Compound C-69] | ≤ 10 | ≤ 10 |
| COc1nc(-c2cccc(-c3cccc(NC(=O)c4ccnn(C)c4=O)c3Cl)c2Cl)cnc1CN1CC2(CCC(=O)N2)C1 [Compound A-1] | ≤ 10 | 10 to 100 |
| COc1nc(-c2cccc(-c3cccc(NC(=O)c4ccn[nH]c4=O)c3Cl)c2Cl)cnc1CN1CC2(CCC(=O)N2)C1 [Compound A-2] | ≤ 10 | 10 to 100 |
| COc1nc(-c2cccc(-c3cccc(NC(=O)c4cc(Cl)n[nH]c4=O)c3Cl)c2Cl)cnc1CN1CC2(CCC(=O)N2)C1 [Compound A-3] | ≤ 10 | 100 to 1000 |
| COc1nc(-c2cccc(-c3cccc(NC(=O)c4cc(C)n[nH]c4=O)c3Cl)c2Cl)cnc1CN1CC2(CCC(=O)N2)C1 [Compound A-4] | ≤ 10 | 100 to 1000 |
| COc1nc(-c2cccc(-c3cccc(NC(=O)c4ccnn(C)c4=O)c3Cl)c2Cl)cnc1CNC[C@@H]1CCC(=O)N1 [Compound B-1] | ≤ 10 | 10 to 100 |
| COc1nc(-c2cccc(-c3cccc(NC(=O)c4ccnn(C)c4=O)c3Cl)c2Cl)ccc1CNC[C@@H]1CCC(=O)N1 [Compound B-2] | ≤ 10 | 10 to 100 |
| COc1nc(-c2cccc(-c3cccc(NC(=O)c4ccnn(C)c4=O)c3Cl)c2Cl)cc(C)c1CNC[C@@H]1CCC(=O)N1 [Compound B-3] | ≤ 10 | ≤ 10 |
| COc1nc(-c2cccc(-c3cccc(NC(=O)c4ccnn(C)c4=O)c3C)c2F)cc(C)c1CNC[C@@H]1CCC(=O)N1 [Compound B-4] | ≤ 10 | 10 to 100 |
| COc1nc(-c2cccc(-c3cccc(NC(=O)c4ccnn(C)c4=O)c3C)c2Cl)cnc1CNC[C@@H]1CCC(=O)N1 [Compound B-5] | ≤ 10 | 100 to 1000 |
| COc1nc(-c2cccc(-c3cccc(NC(=O)c4ccnn(C)c4=O)c3C)c2Cl)ccc1CNC[C@@H]1CCC(=O)N1 [Compound B-6] | ≤ 10 | ≤ 10 |
| COc1nc(-c2cccc(-c3cccc(NC(=O)c4ccnn(C)c4=O)c3C)c2Cl)cc(C)c1CNC[C@@H]1CCC(=O)N1 [Compound B-7] | ≤ 10 | ≤ 10 |
| COc1nc(-c2cccc(-c3cccc(NC(=O)c4ccnn(C)c4=O)c3Cl)c2Cl)ccc1CN[C@@H]1CCOC[C@@H]1O [Compound C-1] | ≤ 10 | > 10000 |
| COc1nc(-c2cccc(-c3cccc(NC(=O)c4ccnn(C)c4=O)c3Cl)c2Cl)ccc1CNCCO [Compound C-2] | ≤ 10 | 10 to 100 |
| COc1nc(-c2cccc(-c3cccc(NC(=O)c4ccnn(C)c4=O)c3Cl)c2Cl)ccc1CNC[C@H](C)O [Compound C-3] | ≤ 10 | 10 to 100 |
| COc1nc(-c2cccc(-c3cccc(NC(=O)c4ccnn(C)c4=O)c3Cl)c2Cl)ccc1CNC[C@@H](C)O [Compound C-4] | ≤ 10 | ≤ 10 |
| COc1nc(-c2cccc(-c3cccc(NC(=O)c4ccnn(C)c4=O)c3Cl)c2Cl)ccc1CNCC(C)(C)O [Compound C-5] | ≤ 10 | 10 to 100 |
| COc1nc(-c2cccc(-c3cccc(NC(=O)c4ccnn(C)c4=O)c3Cl)c2Cl)ccc1CNC1CC1 [Compound C-6] | ≤ 10 | 10 to 100 |
| COc1nc(-c2cccc(-c3cccc(NC(=O)c4ccnn(C)c4=O)c3Cl)c2Cl)ccc1CN1CC(O)C1 [Compound C-7] | ≤ 10 | ≤ 10 |
| COc1nc(-c2cccc(-c3cccc(NC(=O)c4ccnn(C)c4=O)c3Cl)c2Cl)ccc1CN1CC(OC)C1 [Compound C-8] | ≤ 10 | 10 to 100 |
| COc1nc(-c2cccc(-c3cccc(NC(=O)c4ccnn(C)c4=O)c3Cl)c2Cl)ccc1CN1CC(C(=O)O)C1 [Compound C-9] | ≤ 10 | ≤ 10 |
| COc1nc(-c2cccc(-c3cccc(NC(=O)c4ccnn(C)c4=O)c3Cl)c2Cl)ccc1CN1CCCC[C@H]1C(=O)O [Compound C-10] | ≤ 10 | 100 to 1000 |
| COc1nc(-c2cccc(-c3cccc(NC(=O)c4ccnn(C)c4=O)c3Cl)c2Cl)ccc1CN1CCCC[C@@H]1C(=O)O [Compound C-11] | ≤ 10 | 100 to 1000 |

| SMILES | IC50 (PDL1/PD1) [nM] | EC50 (PD-1/PD-L1 interaction) [nM] |
| --- | --- | --- |
| COc1nc(-c2cccc(-c3cccc(NC(=O)c4ccnn(C)c4=O)c3Cl)c2Cl)ccc1CN[C@](C)(CO)C(=O)O [Compound C-12] | ≤ 10 | 10 to 100 |
| CCOC(=O)C1CN(Cc2ccc(-c3cccc(-c4cccc(NC(=O)c5ccnn(C)c5=O)c4Cl)c3Cl)nc2OC)C1 [Compound C-13] | ≤ 10 | 10 to 100 |
| CCOC(=O)[C@@H]1CCN(Cc2ccc(-c3cccc(-c4cccc(NC(=O)c5ccnn(C)c5=O)c4Cl)c3Cl)nc2OC)C1 [Compound C-14] | 10 to 100 | 10 to 100 |
| CCOC(=O)[C@H]1CCN(Cc2ccc(-c3cccc(-c4cccc(NC(=O)c5ccnn(C)c5=O)c4Cl)c3Cl)nc2OC)C1 [Compound C-15] | 10 to 100 | 10 to 100 |
| COc1nc(-c2cccc(-c3cccc(NC(=O)c4ccnn(C)c4=O)c3Cl)c2Cl)ccc1CN1CC[C@@H](C(=O)O)C1 [Compound C-16] | ≤ 10 | 10 to 100 |
| COc1nc(-c2cccc(-c3cccc(NC(=O)c4ccnn(C)c4=O)c3Cl)c2Cl)ccc1CN1CC[C@H](C(=O)O)C1 [Compound C-17] | ≤ 10 | 10 to 100 |
| COc1nc(-c2cccc(-c3cccc(NC(=O)c4ccnn(C)c4=O)c3Cl)c2Cl)ccc1CN[C@@H]1CN(C(C)=O)C[C@@H]1O [Compound C-45] |  | 10 to 100 |
| COc1nc(-c2cccc(-c3cccc(NC(=O)c4ccnn(C)c4=O)c3Cl)c2Cl)ccc1CN1CC(C(=O)NS(C)(=O)=O)C1 [Compound C-46] |  | 10 to 100 |
| COc1nc(-c2cccc(-c3cccc(NC(=O)c4ccnn(C)c4=O)c3C)c2Cl)ccc1CN[C@@H]1CCOC[C@@H]1O [Compound C-52] |  | > 5000 |
| CCOC(=O)C1(C)CN(Cc2ccc(-c3cccc(-c4cccc(NC(=O)c5ccnn(C)c5=O)c4C)c3Cl)nc2OC)C1 [Compound C-59] | ≤ 10 |  |
| COc1nc(-c2cccc(-c3cccc(NC(=O)c4ccnn(C)c4=O)c3C)c2Cl)ccc1CN1CC(F)(C(=O)O)C1 [Compound C-62] |  | 100 to 1000 |
| COc1nc(-c2cccc(-c3cccc(NC(=O)c4ccnn(C)c4=O)c3C)c2C)ccc1CN[C@@H]1CCOC[C@@H]1O [Compound C-71] |  | ≤ 10 |
| COc1nc(-c2cccc(-c3cccc(NC(=O)c4ccnn(C)c4=O)c3C)c2C)ccc1CN1C[C@@H](O)[C@@H]1C [Compound C-74] |  | > 5000 |
| COc1nc(-c2cccc(-c3cccc(NC(=O)c4ccnn(C)c4=O)c3Cl)c2Cl)cnc1CN[C@@H]1CCOC[C@@H]1O [Compound C-83] |  | 10 to 100 |
| COc1nc(-c2cccc(-c3cccc(NC(=O)c4ccnn(C)c4=O)c3Cl)c2Cl)cnc1CN1CC(O)C1 [Compound C-84] |  | 10 to 100 |
| COc1nc(-c2cccc(-c3cccc(NC(=O)c4ccnn(C)c4=O)c3Cl)c2Cl)cnc1CN1CC[C@H](O)C1 [Compound C-85] |  | ≤ 10 |
| COc1nc(-c2cccc(-c3cccc(NC(=O)c4ccnn(C)c4=O)c3C)c2Cl)cnc1CN1CC(O)C1 [Compound C-86] |  | ≤ 10 |
| COc1nc(-c2cccc(-c3cccc(NC(=O)c4ccnn(C)c4=O)c3Cl)c2Cl)ccc1CNCCC(=O)O [Compound C-93] |  | 10 to 100 |
| CCOC(=O)CCNCc1ccc(-c2cccc(-c3cccc(NC(=O)c4ccnn(C)c4=O)c3Cl)c2Cl)nc1OC [Compound C-94] |  | 10 to 100 |
| CCOC(=O)CCN(Cc1ccc(-c2cccc(-c3cccc(NC(=O)c4ccnn(C)c4=O)c3Cl)c2Cl)nc1OC)C(=O)OCc1oc(=O)oc1C [Compound F-1] |  | 100 to 1000 |
| CCOC(=O)[C@@H](O)CNCc1ccc(-c2cccc(-c3cccc(NC(=O)c4ccnn(C)c4=O)c3Cl)c2Cl)nc1OC [Compound G-1] |  | 10 to 100 |
| CCOC(=O)[C@@H]1CN(Cc2ccc(-c3cccc(-c4cccc(NC(=O)c5ccnn(C)c5=O)c4Cl)c3Cl)nc2OC)C(=O)O1 [Compound H-1] |  | > 5000 |
